{"source": "DBAASP", "assay_in_all_cases": "≥ marks a high value that may be exact or a test limit, other limits are often not marked, values filed in µg/mL are converted to µM", "key": {"[1]": {"test_system": "Staphylococcus aureus ATCC 29213"}, "[2]": {"test_system": "Klebsiella pneumoniae 01-239"}, "[3]": {"test_system": "Pseudomonas aeruginosa 3599"}, "[4]": {"test_system": "Pseudomonas aeruginosa ATCC 27853"}, "[5]": {"test_system": "Acinetobacter baumannii 5821"}, "[6]": {"test_system": "Enterobacter cloacae 06-267"}, "[7]": {"test_system": "Klebsiella pneumoniae 01-252"}, "Escherichia coli 170": {"test_system": "Escherichia coli 170"}, "[8]": {"test_system": "Enterobacter cloacae 14-262"}, "[9]": {"test_system": "Staphylococcus aureus 06-051"}, "[10]": {"test_system": "Pseudomonas aeruginosa ATCC 9027"}, "[11]": {"test_system": "Staphylococcus aureus 01-001"}, "Escherichia coli 09-240": {"test_system": "Escherichia coli 09-240"}, "Escherichia coli 09-280": {"test_system": "Escherichia coli 09-280"}, "Escherichia coli 5509": {"test_system": "Escherichia coli 5509"}, "[12]": {"test_system": "Escherichia coli ATCC 25922"}, "[13]": {"test_system": "Pseudomonas aeruginosa 5106"}, "[14]": {"test_system": "Legionella longbeachae ATCC 33484"}, "[15]": {"test_system": "Legionella bozemanae ATCC 33217"}, "Bacillus megaterium F04": {"test_system": "Bacillus megaterium F04"}, "[16]": {"test_system": "Legionella oakridgensis ATCC 33761"}, "[17]": {"test_system": "Legionella pneumophila ATCC 33155"}, "[18]": {"test_system": "Legionella pneumophila ATCC 33216"}, "[19]": {"test_system": "Legionella pneumophila Corby"}, "[20]": {"test_system": "Legionella pneumophila ATCC 33215"}, "[21]": {"test_system": "Legionella feeleii ATCC 35072"}, "[22]": {"test_system": "Legionella pneumophila Lens"}, "[23]": {"test_system": "Legionella pneumophila Paris"}, "[24]": {"test_system": "Legionella micdadei ATCC 33218"}, "[25]": {"test_system": "Enterobacter cloacae AB2010162"}, "[26]": {"test_system": "Klebsiella oxytoca AB2010143"}, "[27]": {"test_system": "Salmonella enterica AB2010185"}, "[28]": {"test_system": "Staphylococcus aureus 16472"}, "Enterococcus sp. S13": {"test_system": "Enterococcus sp. S13"}, "Pseudomonas putida": {"test_system": "Pseudomonas putida"}, "[29]": {"test_system": "Escherichia coli DH5alpha"}, "[30]": {"test_system": "Micrococcus luteus AB2010179"}, "[31]": {"test_system": "Staphylococcus aureus AB94004"}, "[32]": {"test_system": "Candida tropicalis AY91009"}, "[33]": {"test_system": "Bacillus magaterium AB90008"}, "Bacillus megaterium Bm11": {"test_system": "Bacillus megaterium Bm11"}, "[34]": {"test_system": "Pseudomonas aeruginosa OT97"}, "[35]": {"test_system": "Bacillus subtilis ATCC 6633"}, "[36]": {"test_system": "Shigella flexneri ATCC 203"}, "Escherichia coli D21": {"test_system": "Escherichia coli D21"}, "[37]": {"test_system": "Staphylococcus aureus Cowan 1"}, "[38]": {"test_system": "Staphylococcus aureus JC-1"}, "[39]": {"test_system": "Proteus vulgaris OX19 ATCC 6380"}}, "data": [{"smiles": "CC[C@H](C)[C@H](NC(=O)[C@H](C)NC(=O)[C@H](CC(N)=O)NC(=O)[C@H](CCCCN)NC(=O)[C@@H](NC(=O)CNC(=O)[C@H](CCC(=O)O)NC(=O)[C@H](Cc1c[nH]c2ccccc12)NC(=O)[C@H](CC(C)C)NC(=O)[C@H](CCCCN)NC(=O)CNC(=O)[C@H](Cc1c[nH]c2ccccc12)NC(=O)[C@@H](N)Cc1ccccc1)C(C)C)C(N)=O", "note": "[FWGKLWEGVKNAI]", "values": [{"measurement": "MIC", "setting": "[1]", "value": 32, "unit": "µM"}, {"measurement": "MIC", "setting": "[2]", "value": "≥ 50", "unit": "µM"}, {"measurement": "MIC", "setting": "[3]", "value": "≥ 32", "unit": "µM"}, {"measurement": "MIC", "setting": "[4]", "value": "> 32", "unit": "µM"}, {"measurement": "MIC", "setting": "[5]", "value": "≥ 38", "unit": "µM"}, {"measurement": "MIC", "setting": "[6]", "value": "≥ 32", "unit": "µM"}, {"measurement": "MIC", "setting": "[7]", "value": "≥ 32", "unit": "µM"}, {"measurement": "MIC", "setting": "Escherichia coli 170", "value": "≥ 32", "unit": "µM"}, {"measurement": "MIC", "setting": "[8]", "value": "≥ 50", "unit": "µM"}, {"measurement": "MIC", "setting": "[9]", "value": "≥ 32", "unit": "µM"}, {"measurement": "MIC", "setting": "[10]", "value": 40, "unit": "µM"}, {"measurement": "MIC", "setting": "[11]", "value": "≥ 32", "unit": "µM"}, {"measurement": "MIC", "setting": "Escherichia coli 09-240", "value": "≥ 50", "unit": "µM"}, {"measurement": "MIC", "setting": "Escherichia coli 09-280", "value": "≥ 32", "unit": "µM"}, {"measurement": "MIC", "setting": "Escherichia coli 5509", "value": "≥ 32", "unit": "µM"}, {"measurement": "MIC", "setting": "[12]", "value": 25, "unit": "µM"}, {"measurement": "MIC", "setting": "[13]", "value": "≥ 32", "unit": "µM"}]}, {"smiles": "CC[C@H](C)[C@H](NC(=O)[C@H](CC(C)C)NC(=O)[C@H](CC(=O)O)NC(=O)[C@@H](NC(=O)[C@@H](NC(=O)[C@H](Cc1ccccc1)NC(=O)[C@H](CCC(N)=O)NC(=O)[C@@H](N)CCSC)[C@@H](C)CC)[C@@H](C)O)C(=O)N[C@@H](CCCCN)C(=O)N[C@@H](CCCCN)C(=O)N[C@@H](C)C(=O)N[C@H](C(=O)N[C@@H](CC(=O)O)C(=O)N[C@@H](Cc1ccccc1)C(=O)N[C@@H](Cc1ccccc1)C(=O)N[C@@H](CCCCN)C(=O)NCC(=O)N[C@@H](CC(C)C)C(=O)N[C@@H](Cc1ccccc1)C(=O)NCC(=O)N[C@@H](CC(N)=O)C(=O)N[C@@H](CCCCN)C(=O)O)C(C)C", "note": "[MQFITDLIKKAVDFFKGLFGNK]", "values": [{"measurement": "MIC", "setting": "[14]", "value": 19.5, "unit": "µM"}, {"measurement": "MIC", "setting": "[15]", "value": 19.5, "unit": "µM"}, {"measurement": "MIC", "setting": "Bacillus megaterium F04", "value": 4.69, "unit": "µM"}, {"measurement": "MIC", "setting": "[16]", "value": 19.5, "unit": "µM"}, {"measurement": "MIC", "setting": "[17]", "value": 19.5, "unit": "µM"}, {"measurement": "MIC", "setting": "[18]", "value": 19.5, "unit": "µM"}, {"measurement": "MIC", "setting": "[19]", "value": 19.5, "unit": "µM"}, {"measurement": "MIC", "setting": "[20]", "value": 19.5, "unit": "µM"}, {"measurement": "MIC", "setting": "[21]", "value": 19.5, "unit": "µM"}, {"measurement": "MIC", "setting": "[22]", "value": 1.17, "unit": "µM"}, {"measurement": "MIC", "setting": "[23]", "value": 19.5, "unit": "µM"}, {"measurement": "MIC", "setting": "[24]", "value": 19.5, "unit": "µM"}]}, {"smiles": "CC[C@H](C)[C@H](NC(=O)CN)C(=O)N[C@@H](CC(C)C)C(=O)NCC(=O)N[C@@H](CCCCN)C(=O)N[C@@H](CC(C)C)C(=O)N[C@@H](Cc1c[nH]c2ccccc12)C(=O)N[C@@H](CCC(=O)O)C(=O)NCC(=O)N[C@@H](Cc1ccccc1)C(=O)N[C@@H](CCCCN)C(=O)N[C@@H](CO)C(=O)N[C@H](C(=O)N[C@H](C(=O)O)C(C)C)[C@@H](C)CC", "note": "[GILGKLWEGFKSIV]", "values": [{"measurement": "MIC", "setting": "[25]", "value": "≥ 76", "unit": "µM"}, {"measurement": "MIC", "setting": "[26]", "value": "≥ 87", "unit": "µM"}, {"measurement": "MIC", "setting": "[27]", "value": "≥ 72", "unit": "µM"}, {"measurement": "MIC", "setting": "[28]", "value": 14, "unit": "µM"}, {"measurement": "MIC", "setting": "Enterococcus sp. S13", "value": 28, "unit": "µM"}, {"measurement": "MIC", "setting": "Pseudomonas putida", "value": "≥ 87", "unit": "µM"}, {"measurement": "MIC", "setting": "[29]", "value": "≥ 62", "unit": "µM"}, {"measurement": "MIC", "setting": "[30]", "value": "≥ 32", "unit": "µM"}, {"measurement": "MIC", "setting": "[31]", "value": 8, "unit": "µM"}, {"measurement": "MIC", "setting": "[32]", "value": 16, "unit": "µM"}, {"measurement": "MIC", "setting": "[33]", "value": "≥ 32", "unit": "µM"}]}, {"smiles": "CC[C@H](C)[C@H](NC(=O)[C@H](CCCCN)NC(=O)[C@@H](NC(=O)[C@@H](NC(=O)[C@H](CCC(N)=O)NC(=O)CNC(=O)[C@H](Cc1cnc[nH]1)NC(=O)[C@H](CCC(N)=O)NC(=O)[C@@H](N)CC(N)=O)C(C)C)C(C)C)C(=O)N[C@@H](Cc1ccccc1)C(=O)N[C@@H](Cc1cnc[nH]1)C(=O)N[C@@H](Cc1cnc[nH]1)C(=O)O", "note": "[NQHGQVVKIFHH]", "values": [{"measurement": "MIC", "setting": "Bacillus megaterium Bm11", "value": "≥ 800", "unit": "µM"}, {"measurement": "MIC", "setting": "[34]", "value": "≥ 6000", "unit": "µM"}, {"measurement": "MIC", "setting": "[35]", "value": "≥ 3200", "unit": "µM"}, {"measurement": "MIC", "setting": "[36]", "value": "≥ 6000", "unit": "µM"}, {"measurement": "MIC", "setting": "Escherichia coli D21", "value": "≥ 3200", "unit": "µM"}, {"measurement": "MIC", "setting": "[37]", "value": "≥ 6000", "unit": "µM"}, {"measurement": "MIC", "setting": "[38]", "value": "≥ 1600", "unit": "µM"}, {"measurement": "MIC", "setting": "[39]", "value": "≥ 6000", "unit": "µM"}]}]}
